Source: patent US8178548B2, “Anti-infective agents and uses thereof” (priority 2007, dated 2012)

Columns and labels:
[1] = system: genotype 1a-H77 subgenomic replicon cell line; assay: HCV Polymerase Replicon Assay, genotype 1a-H77 (luciferase reporter); assay type: cell-based; conditions: Hepatitis C virus, 72 h; replicon 1a-H77, luciferase, three days; read-out: EC50 1a
[2] = system: genotype 1b-Con1 subgenomic replicon cell line; assay: HCV Polymerase Replicon Assay, genotype 1b-Con1 (luciferase reporter); assay type: cell-based; conditions: Hepatitis C virus, 72 h; replicon 1b-Con1, luciferase, three days; read-out: EC50 1b
[3] = target: T1, HCV polymerase 1A (Δ21 NS5B, H77) (Hepatitis C virus genotype 1a, UniProt P27958); assay: biochemical
T1 construct: 20 to 50 nM Δ21 NS5B
Outline: (§1)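 Δ21 NS5B (20–50 nM) was preincubated with inhibitor, 60–125 μM GTP and 2 mM MnCl2 (pH 7.4) for 15 min at RT. RNA synthesis on 5 nM template with 20 μM CTP/ATP and 1 μM ³H-UTP ran 2–4 h at RT. Spermine-precipitated RNA was filter-counted, and IC50 was fit with a tight-binding equation.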

[4] = target: T2, HCV polymerase 1B (Δ21 NS5B, HCV Strain 1B BK) (Hepatitis C virus genotype 1b, UniProt P26663); assay: biochemical
T2 construct: 20 to 50 nM Δ21 NS5B
Outline: as §1

T2 sequence (P26663 2420-2989, stated change not applied): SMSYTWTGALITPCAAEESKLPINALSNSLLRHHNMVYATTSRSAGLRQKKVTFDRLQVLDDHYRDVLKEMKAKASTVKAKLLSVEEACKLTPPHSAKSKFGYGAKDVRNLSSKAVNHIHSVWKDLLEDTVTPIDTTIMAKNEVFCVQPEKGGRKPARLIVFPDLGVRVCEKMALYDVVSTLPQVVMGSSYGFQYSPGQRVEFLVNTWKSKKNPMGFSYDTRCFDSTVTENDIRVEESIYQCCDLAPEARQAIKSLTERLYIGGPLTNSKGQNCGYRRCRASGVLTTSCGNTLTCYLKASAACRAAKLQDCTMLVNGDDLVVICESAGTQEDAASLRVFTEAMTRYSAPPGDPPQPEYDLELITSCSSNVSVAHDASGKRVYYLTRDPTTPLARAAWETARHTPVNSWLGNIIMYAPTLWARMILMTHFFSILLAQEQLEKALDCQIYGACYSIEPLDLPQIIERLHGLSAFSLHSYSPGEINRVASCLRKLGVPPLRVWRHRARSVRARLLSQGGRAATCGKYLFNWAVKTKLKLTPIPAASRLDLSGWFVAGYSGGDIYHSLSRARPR
T1 sequence (P27958 2421-2990, stated change not applied): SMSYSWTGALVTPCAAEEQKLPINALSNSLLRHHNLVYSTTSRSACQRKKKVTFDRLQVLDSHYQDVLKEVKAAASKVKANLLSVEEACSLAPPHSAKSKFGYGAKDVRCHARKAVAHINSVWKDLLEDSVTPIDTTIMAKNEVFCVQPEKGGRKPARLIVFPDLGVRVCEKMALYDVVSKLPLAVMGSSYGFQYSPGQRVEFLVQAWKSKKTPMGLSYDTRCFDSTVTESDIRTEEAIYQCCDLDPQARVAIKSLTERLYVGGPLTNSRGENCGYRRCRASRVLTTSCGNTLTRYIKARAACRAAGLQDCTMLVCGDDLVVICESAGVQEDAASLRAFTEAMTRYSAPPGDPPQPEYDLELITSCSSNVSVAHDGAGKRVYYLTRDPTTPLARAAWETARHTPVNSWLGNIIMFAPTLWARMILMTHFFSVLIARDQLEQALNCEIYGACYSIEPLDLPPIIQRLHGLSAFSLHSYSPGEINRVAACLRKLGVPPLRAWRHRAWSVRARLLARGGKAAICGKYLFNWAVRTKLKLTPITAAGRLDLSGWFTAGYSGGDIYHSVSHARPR

Structure (SMILES)	EC50 [1] [nM]	EC50 [2] [nM]	IC50 [3] [nM]	IC50 [4] [nM]
COc1c(/C=C/c2ccc(NS(C)(=O)=O)cc2)cc(-n2ccc(=O)[nH]c2=O)cc1C(C)(C)CO [IB-L1-1.45, (E)-N-(4-(5-(2,4-dioxo-3,4-dihydropyrimidin-1(2H)-yl)-3-(1-hydroxy-2-methylpropan-2-yl)-2-methoxystyryl)phenyl)methanesulfonamide]	10 to 100	< 10	< 10	10 to 100
COc1c(/C=C/c2ccc(NS(C)(=O)=O)cc2)cc(-n2ccc(=O)[nH]c2=O)cc1-c1ccco1 [IB-L1-1.46, (E)-N-(4-(5-(2,4-dioxo-3,4-dihydropyrimidin-1(2H)-yl)-3-(furan-2-yl)-2-methoxystyryl)phenyl)methanesulfonamide]	100 to 1000	< 10	10 to 100	10 to 100
COc1c(/C=C/c2ccc(NS(C)(=O)=O)cc2)cc(-n2ccc(=O)[nH]c2=O)cc1-c1ccsc1 [IB-L1-1.47, (E)-N-(4-(5-(2,4-dioxo-3,4-dihydropyrimidin-1(2H)-yl)-2-methoxy-3-(thiophen-3-yl)styryl)phenyl)methanesulfonamide]	100 to 1000	10 to 100	10 to 100	10 to 100
COc1c(/C=C/c2ccc(NS(C)(=O)=O)cc2)cc(-n2ccc(=O)[nH]c2=O)cc1-c1cccs1 [IB-L1-1.48, (E)-N-(4-(5-(2,4-dioxo-3,4-dihydropyrimidin-1(2H)-yl)-2-methoxy-3-(thiophen-2-yl)styryl)phenyl)methanesulfonamide]	100 to 1000	< 10	10 to 100	10 to 100
COc1c(/C=C/c2ccc(NS(C)(=O)=O)cc2)cc(-n2ccc(=O)[nH]c2=O)cc1S(C)(=O)=O [IB-L1-1.49, (E)-N-(4-(5-(2,4-dioxo-3,4-dihydropyrimidin-1(2H)-yl)-2-methoxy-3-(methylsulfonyl)styryl)phenyl)methanesulfonamide]	> 1000	> 1000	10 to 100	100 to 1000
COc1c(/C=C/c2ccc(NS(C)(=O)=O)cc2)cc(-n2ccc(=O)[nH]c2=O)cc1-c1ccoc1 [IB-L1-1.50, (E)-N-(4-(5-(2,4-dioxo-3,4-dihydropyrimidin-1(2H)-yl)-3-(furan-3-yl)-2-methoxystyryl)phenyl)methanesulfonamide]	100 to 1000	10 to 100	10 to 100	10 to 100
COc1c(I)cc(-n2ccc(=O)[nH]c2=O)cc1/C=C/c1ccc(NS(C)(=O)=O)cc1 [IB-L1-1.51, (E)-N-(4-(5-(2,4-dioxo-3,4-dihydropyrimidin-1(2H)-yl)-3-iodo-2-methoxystyryl)phenyl)methanesulfonamide]	> 1000	10 to 100	10 to 100	10 to 100
COc1c(Br)cc(-n2ccc(=O)[nH]c2=O)cc1/C=C/c1ccc(NS(C)(=O)=O)cc1 [IB-L1-1.52, (E)-N-(4-(3-bromo-5-(2,4-dioxo-3,4-dihydropyrimidin-1(2H)-yl)-2-methoxystyryl)phenyl)methanesulfonamide]	> 1000	100 to 1000	100 to 1000	100 to 1000
COC(=O)c1cc(NS(C)(=O)=O)ccc1CCc1cc(-n2ccc(=O)[nH]c2=O)cc(C(C)(C)C)c1OC [IB-L5-2-1.1, methyl 2-(3-tert-butyl-5-(2,4-dioxo-3,4-dihydropyrimidin-1(2H)-yl)-2-methoxyphenethyl)-5-(methylsulfonamido)benzoate]	10 to 100	< 10	< 10	10 to 100
COc1c(CCc2ccc(NS(C)(=O)=O)cc2)cc(-n2ccc(=O)[nH]c2=O)cc1C(C)(C)C [IB-L5-2-1.2, N-(4-(3-tert-butyl-5-(2,4-dioxo-3,4-dihydropyrimidin-1(2H)-yl)-2-methoxyphenethyl)phenyl)methanesulfonamide]	100 to 1000	10 to 100	10 to 100	10 to 100
